Test results reported in ChEMBL document CHEMBL4052785, “Discovery of (R)-5-(benzo[d][1,3]dioxol-5-yl)-7-((1-(vinylsulfonyl)pyrrolidin-2-yl)methyl)-7H-pyrrolo[2,3-d]pyrimidin-4-amine (B6) as a potent Bmx inhibitor for the treatment of NSCLC” (Bioorg Med Chem Lett, 2017).
≈ marks a conversion by molar mass, not a printed value.

Columns and labels:
HCC827 = assay: Antiproliferative activity against human HCC827 cells harboring EGFR Del19 mutant after 72 hrs by MTT assay; format: functional, cell-based; conditions: HCC827, 72 h
[1] = Aqueous solubility of the compound at 1 mg; format: physicochemical
Mus musculus = assay: Toxicity in nude mouse xenografted with human NCI-H1975 cells assessed as body weight loss at 25 mg/kg administered qd via oral gavage measured every 2 days up to 18 days; format: organism-based; conditions: in vivo
NCI-H1975 = assay: Antitumor activity against human NCI-H1975 cells xenografted in nude mouse assessed as tumor growth inhibition at 25 mg/kg administered via oral gavage qd measured every 2 days up to 18 days relative to control; format: functional; conditions: read-out: TGI
[2] = target: Epidermal growth factor receptor (Homo sapiens, UniProt P00533); assay: Inhibition of recombinant human N-terminal GST-tagged EGFR (696 to end residues) expressed in baculovirus Sf21 insect cells preincubated for 5 mins followed by substrate addition after 30 to 60 mins in presence of ATP by fluorescence assay
[3] = target: Receptor tyrosine-protein kinase erbB-4 (Homo sapiens, UniProt Q15303); assay: Inhibition of human N-terminal 6His-tagged HER4 (706 to 991 residues) preincubated for 5 mins followed by substrate addition after 30 to 60 mins in presence ATP of fluorescence assay
[4] = target: Tyrosine-protein kinase Blk (Homo sapiens, UniProt P51451); assay: Inhibition of BLK (unknown origin) preincubated for 5 mins followed by substrate addition after 30 to 60 mins in presence of ATP by fluorescence assay
[5] = target: Tyrosine-protein kinase Yes (Homo sapiens, UniProt P07947); assay: Inhibition of recombinant human full length N-terminal His6-tagged YES expressed in baculovirus Sf21 insect cells preincubated for 5 mins followed by biotinyl-beta Abeta Abeta AYQAEENTYDEYEN substrate addition after 30 to 60 mins in presence of ATP by fluorescence assay
[6] = target: Tyrosine-protein kinase Lck (Homo sapiens, UniProt P06239); assay: Inhibition of recombinant human full length N-terminal His6-tagged LCK expressed in Sf21 insect cells preincubated for 5 mins followed by substrate addition after 30 to 60 mins in presence of ATP by fluorescence assay
[7] = target: Proto-oncogene tyrosine-protein kinase Src (Homo sapiens, UniProt P12931); assay: Inhibition of recombinant human full length N-terminal His6-tagged SRC expressed in Sf21 insect cells preincubated for 5 mins followed by substrate addition after 30 to 60 mins in presence of ATP by fluorescence assay
[8] = target: Tyrosine-protein kinase HCK (Homo sapiens, UniProt P08631); assay: Inhibition of recombinant human N-terminal His6-tagged HCK (230 to 497 residues) expressed in baculovirus Sf21 insect cells preincubated for 5 mins followed by substrate addition after 30 to 60 mins in presence of ATP by fluorescence assay
[9] = target: Tyrosine-protein kinase FRK (Homo sapiens, UniProt P42685); assay: Inhibition of recombinant human N-terminal His6-tagged FRK (218 to end residues) expressed in baculovirus Sf21 insect cells preincubated for 5 mins followed by substrate addition after 30 to 60 mins in presence of ATP by fluorescence assay
[10] = target: Receptor-interacting serine/threonine-protein kinase 2 (Homo sapiens, UniProt O43353); assay: Inhibition of recombinant human N-terminal His6-tagged RIPK2 (1 to 299 residues) expressed in baculovirus Sf21 insect cells preincubated for 5 mins followed by substrate addition after 30 to 60 mins in presence of ATP by fluorescence assay
[11] = target: Tyrosine-protein kinase CSK (Homo sapiens, UniProt P41240); assay: Inhibition of recombinant human full length N-terminal GST-tagged CSK expressed in Escherichia coli BL21 (DE3) cells preincubated for 5 mins followed by biotinyl-beta Abeta Abeta AEEEPQYEEIPIYLELLP substrate addition after 30 to 60 mins in presence of ATP by fluorescence assay
[12] = target: Macrophage colony-stimulating factor 1 receptor (Homo sapiens, UniProt P07333); assay: Inhibition of recombinant human N-terminal His6-tagged FMS (538 to end residues) expressed in baculovirus Sf21 insect cells preincubated for 5 mins followed by substrate addition after 30 to 60 mins in presence of ATP by fluorescence assay
[13] = target: Tyrosine-protein kinase JAK1 (Homo sapiens, UniProt P23458); assay: Inhibition of human JAK1 expressed in baculovirus in Sf21 insect cells preincubated for 5 mins followed by substrate addition after 30 to 60 mins in presence of ATP by fluorescence assay
[14] = target: Tyrosine-protein kinase JAK2 (Homo sapiens, UniProt O60674); assay: Inhibition of recombinant human C-terminal His6-tagged JAK2 (808 to end residues) expressed in baculovirus Sf21 insect cells preincubated for 5 mins followed by substrate addition after 30 to 60 mins in presence of ATP by fluorescence assay
Homo sapiens [15] = organism: Homo sapiens; assay: Selectivity ratio of IC50 for recombinant human N-terminal His6-tagged TEC (174 to end residues) to IC50 for human full length N-terminal His6-tagged BMX
Homo sapiens [16] = organism: Homo sapiens; assay: Selectivity ratio of IC50 for recombinant human N-terminal His6-tagged TXK (256 to end residues) to IC50 for human full length N-terminal His6-tagged BMX
Homo sapiens [17] = organism: Homo sapiens; assay: Selectivity ratio of IC50 for BLK (unknown origin) to IC50 for human full length N-terminal His6-tagged BMX
Homo sapiens [18] = organism: Homo sapiens; assay: Selectivity ratio of IC50 for recombinant human N-terminal His6-tagged FGR (2 to end residues) to IC50 for human full length N-terminal His6-tagged BMX
Homo sapiens [19] = organism: Homo sapiens; assay: Selectivity ratio of IC50 for recombinant human full length N-terminal His6-tagged SRC to IC50 for human full length N-terminal His6-tagged BMX
Homo sapiens [20] = organism: Homo sapiens; assay: Selectivity ratio of IC50 for recombinant human N-terminal His6-tagged FRK (218 to end residues) to IC50 for human full length N-terminal His6-tagged BMX
Homo sapiens [21] = organism: Homo sapiens; assay: Selectivity ratio of IC50 for recombinant human N-terminal GST-tagged FLT3 (564 to end residues) to IC50 for human full length N-terminal His6-tagged BMX
Homo sapiens [22] = organism: Homo sapiens; assay: Selectivity ratio of IC50 for recombinant human N-terminal His6-tagged RIPK2 (1 to 299 residues) to IC50 for human full length N-terminal His6-tagged BMX
Homo sapiens [23] = organism: Homo sapiens; assay: Selectivity ratio of IC50 for recombinant human N-terminal His6-tagged ABL (27 to end residues) to IC50 for human full length N-terminal His6-tagged BMX
Homo sapiens [24] = organism: Homo sapiens; assay: Selectivity ratio of IC50 for recombinant human N-terminal His6-tagged FER (541 to end residues) to IC50 for human full length N-terminal His6-tagged BMX
Homo sapiens [25] = organism: Homo sapiens; assay: Selectivity ratio of IC50 for recombinant human C-terminal His6-tagged JAK2 (808 to end residues) to IC50 for human full length N-terminal His6-tagged BMX
Homo sapiens [26] = organism: Homo sapiens; assay: Selectivity ratio of IC50 for recombinant human full length N-terminal His6-tagged NEK2 to IC50 for human full length N-terminal His6-tagged BMX

Sequence of Receptor tyrosine-protein kinase erbB-4 (Q15303 whole entry, the tested form may be a part): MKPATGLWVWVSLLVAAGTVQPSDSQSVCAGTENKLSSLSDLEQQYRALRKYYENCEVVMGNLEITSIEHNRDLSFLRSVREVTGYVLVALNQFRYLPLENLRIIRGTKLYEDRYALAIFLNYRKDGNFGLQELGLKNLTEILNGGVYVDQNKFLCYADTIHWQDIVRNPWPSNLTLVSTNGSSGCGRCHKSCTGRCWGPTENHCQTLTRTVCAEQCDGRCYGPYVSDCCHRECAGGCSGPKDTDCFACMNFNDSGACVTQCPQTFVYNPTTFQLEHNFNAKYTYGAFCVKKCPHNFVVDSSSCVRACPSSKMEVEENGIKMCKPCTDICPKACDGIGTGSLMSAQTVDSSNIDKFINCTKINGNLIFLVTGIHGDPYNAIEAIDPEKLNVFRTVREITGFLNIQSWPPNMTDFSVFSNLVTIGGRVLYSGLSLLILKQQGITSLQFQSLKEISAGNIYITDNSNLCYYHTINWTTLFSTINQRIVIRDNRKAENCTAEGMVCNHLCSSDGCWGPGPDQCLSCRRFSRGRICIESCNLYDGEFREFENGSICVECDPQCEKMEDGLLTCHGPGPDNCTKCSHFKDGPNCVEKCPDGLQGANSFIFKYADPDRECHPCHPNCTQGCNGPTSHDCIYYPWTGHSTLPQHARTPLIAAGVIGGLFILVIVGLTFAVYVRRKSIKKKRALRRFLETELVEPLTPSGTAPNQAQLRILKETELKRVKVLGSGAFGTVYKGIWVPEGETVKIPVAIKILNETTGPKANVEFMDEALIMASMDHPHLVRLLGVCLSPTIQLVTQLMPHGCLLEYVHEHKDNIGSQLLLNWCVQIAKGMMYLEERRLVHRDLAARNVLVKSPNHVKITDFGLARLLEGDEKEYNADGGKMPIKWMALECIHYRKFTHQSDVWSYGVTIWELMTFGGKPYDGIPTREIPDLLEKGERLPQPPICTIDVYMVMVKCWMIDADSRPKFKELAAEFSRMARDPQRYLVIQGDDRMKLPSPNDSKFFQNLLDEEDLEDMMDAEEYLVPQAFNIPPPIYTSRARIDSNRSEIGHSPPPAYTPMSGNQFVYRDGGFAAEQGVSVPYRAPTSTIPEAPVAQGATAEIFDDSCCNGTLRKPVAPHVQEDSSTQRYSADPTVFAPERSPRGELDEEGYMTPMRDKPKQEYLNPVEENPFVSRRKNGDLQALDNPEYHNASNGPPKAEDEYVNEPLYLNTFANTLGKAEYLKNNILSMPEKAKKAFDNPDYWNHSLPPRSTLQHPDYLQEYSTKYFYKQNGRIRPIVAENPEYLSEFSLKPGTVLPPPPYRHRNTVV
Sequence of Epidermal growth factor receptor (P00533 whole entry, the tested form may be a part): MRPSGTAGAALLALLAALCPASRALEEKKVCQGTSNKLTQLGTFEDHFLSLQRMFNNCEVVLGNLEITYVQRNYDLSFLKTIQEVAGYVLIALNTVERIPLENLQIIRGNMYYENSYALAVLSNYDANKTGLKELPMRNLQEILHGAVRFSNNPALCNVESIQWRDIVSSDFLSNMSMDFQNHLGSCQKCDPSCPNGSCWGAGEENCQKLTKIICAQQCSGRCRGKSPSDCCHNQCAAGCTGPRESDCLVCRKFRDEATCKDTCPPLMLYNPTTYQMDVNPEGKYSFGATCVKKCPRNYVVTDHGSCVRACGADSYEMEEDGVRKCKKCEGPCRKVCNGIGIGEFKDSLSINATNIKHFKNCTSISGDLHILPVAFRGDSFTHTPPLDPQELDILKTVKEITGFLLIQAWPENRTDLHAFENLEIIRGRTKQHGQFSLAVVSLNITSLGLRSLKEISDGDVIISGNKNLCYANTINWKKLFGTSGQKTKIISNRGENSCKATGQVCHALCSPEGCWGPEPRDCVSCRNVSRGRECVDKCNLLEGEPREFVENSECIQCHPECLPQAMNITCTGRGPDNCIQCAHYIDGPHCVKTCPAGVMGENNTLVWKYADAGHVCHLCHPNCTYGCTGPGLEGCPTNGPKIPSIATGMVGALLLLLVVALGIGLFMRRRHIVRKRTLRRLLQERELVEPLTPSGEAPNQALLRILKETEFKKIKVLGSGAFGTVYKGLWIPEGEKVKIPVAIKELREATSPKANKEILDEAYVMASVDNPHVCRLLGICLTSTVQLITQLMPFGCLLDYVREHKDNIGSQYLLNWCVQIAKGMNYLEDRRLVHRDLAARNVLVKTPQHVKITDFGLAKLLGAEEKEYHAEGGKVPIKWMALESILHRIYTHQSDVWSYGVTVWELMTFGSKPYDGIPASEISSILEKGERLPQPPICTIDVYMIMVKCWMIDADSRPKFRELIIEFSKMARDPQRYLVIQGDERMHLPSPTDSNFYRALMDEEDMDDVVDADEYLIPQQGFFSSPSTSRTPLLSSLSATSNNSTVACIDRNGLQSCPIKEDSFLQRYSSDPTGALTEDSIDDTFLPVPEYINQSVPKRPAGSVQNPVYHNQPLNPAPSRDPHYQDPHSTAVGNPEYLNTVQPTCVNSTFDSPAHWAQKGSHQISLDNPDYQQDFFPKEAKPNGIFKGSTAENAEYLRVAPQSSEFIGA
Sequence of Tyrosine-protein kinase JAK2 (O60674 whole entry): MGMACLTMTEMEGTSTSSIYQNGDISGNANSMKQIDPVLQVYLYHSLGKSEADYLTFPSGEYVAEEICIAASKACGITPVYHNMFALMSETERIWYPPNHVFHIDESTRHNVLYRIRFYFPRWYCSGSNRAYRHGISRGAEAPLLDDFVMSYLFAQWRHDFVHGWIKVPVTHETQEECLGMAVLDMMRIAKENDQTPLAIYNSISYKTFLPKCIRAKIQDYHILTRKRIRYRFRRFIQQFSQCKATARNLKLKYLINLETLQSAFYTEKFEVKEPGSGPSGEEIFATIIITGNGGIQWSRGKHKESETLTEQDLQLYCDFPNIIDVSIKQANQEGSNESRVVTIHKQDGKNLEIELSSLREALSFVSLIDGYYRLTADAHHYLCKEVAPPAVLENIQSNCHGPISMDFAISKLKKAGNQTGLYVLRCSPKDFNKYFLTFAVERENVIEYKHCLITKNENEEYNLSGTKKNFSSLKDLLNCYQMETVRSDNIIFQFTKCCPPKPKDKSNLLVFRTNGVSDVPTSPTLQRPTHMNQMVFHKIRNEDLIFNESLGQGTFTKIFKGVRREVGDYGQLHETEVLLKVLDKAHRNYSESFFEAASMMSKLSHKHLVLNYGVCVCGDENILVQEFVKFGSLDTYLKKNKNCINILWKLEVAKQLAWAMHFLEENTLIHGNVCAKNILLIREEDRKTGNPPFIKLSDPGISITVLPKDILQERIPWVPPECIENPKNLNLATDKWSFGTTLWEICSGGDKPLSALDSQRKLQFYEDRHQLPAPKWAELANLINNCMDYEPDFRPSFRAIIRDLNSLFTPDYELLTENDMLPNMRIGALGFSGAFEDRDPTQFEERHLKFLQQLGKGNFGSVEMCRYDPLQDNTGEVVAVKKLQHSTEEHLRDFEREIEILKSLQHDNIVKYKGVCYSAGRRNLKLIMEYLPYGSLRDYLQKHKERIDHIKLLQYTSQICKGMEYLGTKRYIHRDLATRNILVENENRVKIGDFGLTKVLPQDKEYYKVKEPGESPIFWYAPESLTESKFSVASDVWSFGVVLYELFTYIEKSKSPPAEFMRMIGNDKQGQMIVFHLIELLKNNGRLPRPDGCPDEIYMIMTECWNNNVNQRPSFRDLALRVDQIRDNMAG
Sequence of Tyrosine-protein kinase Lck (P06239 whole entry): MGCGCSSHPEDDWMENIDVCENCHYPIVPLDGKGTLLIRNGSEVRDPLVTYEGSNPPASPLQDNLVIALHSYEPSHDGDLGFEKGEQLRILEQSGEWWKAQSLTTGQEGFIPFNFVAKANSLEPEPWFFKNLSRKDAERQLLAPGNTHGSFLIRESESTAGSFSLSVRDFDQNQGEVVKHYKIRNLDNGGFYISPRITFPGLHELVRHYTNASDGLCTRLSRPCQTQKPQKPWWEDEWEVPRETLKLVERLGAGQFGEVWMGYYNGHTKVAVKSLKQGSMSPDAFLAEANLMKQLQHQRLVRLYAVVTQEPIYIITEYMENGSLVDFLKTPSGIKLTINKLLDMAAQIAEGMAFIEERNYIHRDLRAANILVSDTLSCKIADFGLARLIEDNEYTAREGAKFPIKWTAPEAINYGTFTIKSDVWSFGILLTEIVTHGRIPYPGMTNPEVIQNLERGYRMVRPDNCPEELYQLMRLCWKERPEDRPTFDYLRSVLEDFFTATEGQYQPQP
Sequence of Macrophage colony-stimulating factor 1 receptor (P07333 whole entry): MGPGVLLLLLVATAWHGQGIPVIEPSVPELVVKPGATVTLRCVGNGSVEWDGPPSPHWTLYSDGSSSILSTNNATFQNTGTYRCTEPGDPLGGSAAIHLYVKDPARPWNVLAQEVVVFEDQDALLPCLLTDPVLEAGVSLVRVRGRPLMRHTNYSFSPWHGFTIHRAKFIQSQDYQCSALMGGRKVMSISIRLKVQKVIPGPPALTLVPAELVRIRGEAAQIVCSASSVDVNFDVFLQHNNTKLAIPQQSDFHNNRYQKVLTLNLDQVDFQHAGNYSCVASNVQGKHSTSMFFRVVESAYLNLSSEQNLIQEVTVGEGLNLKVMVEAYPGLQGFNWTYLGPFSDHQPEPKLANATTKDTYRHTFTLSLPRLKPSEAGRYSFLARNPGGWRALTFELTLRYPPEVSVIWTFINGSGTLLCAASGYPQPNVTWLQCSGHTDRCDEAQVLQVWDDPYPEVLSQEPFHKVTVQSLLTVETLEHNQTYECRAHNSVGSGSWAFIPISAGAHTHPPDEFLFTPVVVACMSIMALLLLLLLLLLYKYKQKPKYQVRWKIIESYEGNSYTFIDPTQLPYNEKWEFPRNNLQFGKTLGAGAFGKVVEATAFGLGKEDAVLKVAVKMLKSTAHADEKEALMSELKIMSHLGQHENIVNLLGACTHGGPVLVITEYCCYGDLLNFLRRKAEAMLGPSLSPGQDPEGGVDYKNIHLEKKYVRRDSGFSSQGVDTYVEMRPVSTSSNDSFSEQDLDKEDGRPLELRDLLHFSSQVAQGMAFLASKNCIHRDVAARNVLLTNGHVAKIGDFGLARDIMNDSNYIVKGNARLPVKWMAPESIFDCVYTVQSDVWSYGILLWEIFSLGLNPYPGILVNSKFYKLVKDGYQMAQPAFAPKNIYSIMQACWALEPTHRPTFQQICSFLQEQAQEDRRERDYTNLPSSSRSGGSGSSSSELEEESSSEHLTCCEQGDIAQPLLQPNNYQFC

SMILES: C=CS(=O)(=O)N1CCC[C@@H]1Cn1cc(-c2ccc3c(c2)OCO3)c2c(N)ncnc21
- IC50 (HCC827): 0.014 µM
- solubility [1]: 0.1 mg/mL (≈ 234 µM)
- Activity (Mus musculus): Toxic
- inhibition in vivo at 25 mg/kg (NCI-H1975): 73.9%
- IC50 [2]: 0.643 µM
- IC50 [3]: 1 µM
- IC50 [4]: 0.0764 µM
- IC50 [5]: 0.0573 µM
- IC50 [6]: 0.195 µM
- IC50 [7]: 0.197 µM
- IC50 [8]: 0.199 µM
- IC50 [9]: 0.51 µM
- IC50 [10]: 0.403 µM
- IC50 [11]: 2.83 µM
- IC50 [12]: 4.7 µM
- IC50 [13]: > 10 µM
- IC50 [14]: > 10 µM
- Ratio IC50 (Homo sapiens [15]): 3.1
- Ratio IC50 (Homo sapiens [16]): 25.7
- Ratio IC50 (Homo sapiens [17]): 2.1
- Ratio IC50 (Homo sapiens [18]): 3.7
- Ratio IC50 (Homo sapiens [19]): 5.5
- Ratio IC50 (Homo sapiens [20]): 14.3
- Ratio IC50 (Homo sapiens [21]): 91.7
- Ratio IC50 (Homo sapiens [22]): 11.3
- Ratio IC50 (Homo sapiens [23]): 22.5
- Ratio IC50 (Homo sapiens [24]): 166
- Ratio IC50 (Homo sapiens [25]): > 280
- Ratio IC50 (Homo sapiens [26]): > 280
